# Experiments:
# [1] = tested on: Leishmania tropica; assay: Microscopy of Leishmania photolysis after PC sensitization and red light; type: cell-based; settings: PC1/PC2: followed by red light; PC3/PC4: with or without red light
# Procedure: (§1) Leishmania were suspended to 5×10^7-10^8 cells ml^−1 in HBSS-BSA for exposure to serial dilutions of PCs 1-4 in the dark overnight. Controls included cells exposed to diluent alone. J774 macrophages were treated as monolayer in HBSS-BSA or culture medium under otherwise the same conditions. All cultures were kept in the dark for various time periods up to 24 hrs.
# Control and PC-sensitized Leishmania were washed and suspended in HBSS-BSA. The cell suspensions in 24-well culture plates and monolayers of J774 macrophages in 25 cm^2 TC flasks were exposed from the bottom to red light (wavelengths >650 nm) via a red filter (Smith-Victor Co., Barlett, Ill., USA; part #650021) over a light box for 20-30 min at a fluence of 1-2 J cm^2.
# Nikon Eclipse 80i and TE2000-S microscopes with CCD cameras were used with Metamorphosis (version 6.1) or NIS Elements version AR 4.20.01 software for image capture and analysis. Concentrated cells (˜3 μl) on a glass slide under an 18 mm^2 glass coverslip were first scanned under phase contrast to localize cells. […] GFP/CFSE fluorescent Leishmania were further examined by using the FITC filter set. Images captured under different settings were merged by using the software programs mentioned. […]
# [2] = tested on: Leishmania tropica; assay: Leishmania uptake of PCs by fluorescence microscopy; type: cell-based; settings: fluorescent microscopy, Cy5 filter, exposure in the dark
# Procedure: as §1
# Nikon Eclipse 80i and TE2000-S microscopes with CCD cameras were used with Metamorphosis (version 6.1) or NIS Elements version AR 4.20.01 software for image capture and analysis. Concentrated cells (˜3 μl) on a glass slide under an 18 mm^2 glass coverslip were first scanned under phase contrast to localize cells. […] GFP/CFSE fluorescent Leishmania were further examined by using the FITC filter set. Images captured under different settings were merged by using the software programs mentioned. The filter sets (Chroma Technology Co., Brattleboro, Vt.) used were: (1) HQ620/60 (620-nm exciter), Q660LP (660-nm dichroic), and HQ700/80 (700-nm emitter) for phthalocyanines; and (2) HQ480/40 (480-nm exciter), Q505LP (505-nm dichroic), and HQ535/50 (535-nm emitter) for GFP and CFSE.
substance,measurement,setting,value
triethylene glycol substituted Zn(II)-phthalocyanine [PC4],motility and structural integrity after PC sensitization,[1],retained their motility and cellular integrity
same,uptake by Leishmania (PC fluorescence in cells),[2],no uptake

# — patent US20170042989A1, “PHOTOSENSITIZED TRYPANOSOMATIDS AND VACCINE COMPOSITIONS THEREOF” (ROSALIND FRANKLIN UNIVERSITY OF MEDICINE AND SCIENCE, priority 2015, published 2017)
